Assay results taken from paper PMC7400577 (Scientific Reports, 2020).
Several values for one entry are separate records, joined by “and”; a condition that tells them apart may be missing. Equal entries are not always repeated. Where two headings read alike, the source gives them in different places.

Experiments:
hBGT1 [1] = target: T1, hBGT1 (Homo sapiens, UniProt P48065); assay type: cell-based; conditions: for IC50: 30 nM [3H]GABA, 3 min, CHO Flp-In cells stably expressing hBGT1; for subtype-selectivity for hBGT1 over the other hGATs: estimated from [3H]GABA uptake IC50 values; for subtype-selectivity for hBGT1 over the other hGATs / decrease of hBGT1 inhibitory potency compared to ATPCA: CHO Flp-In cells; for decrease of hBGT1 inhibitory potency compared to ATPCA: [3H]GABA uptake
T1 construct: expressed in transfected cells
T1 sequence (P48065 1-614): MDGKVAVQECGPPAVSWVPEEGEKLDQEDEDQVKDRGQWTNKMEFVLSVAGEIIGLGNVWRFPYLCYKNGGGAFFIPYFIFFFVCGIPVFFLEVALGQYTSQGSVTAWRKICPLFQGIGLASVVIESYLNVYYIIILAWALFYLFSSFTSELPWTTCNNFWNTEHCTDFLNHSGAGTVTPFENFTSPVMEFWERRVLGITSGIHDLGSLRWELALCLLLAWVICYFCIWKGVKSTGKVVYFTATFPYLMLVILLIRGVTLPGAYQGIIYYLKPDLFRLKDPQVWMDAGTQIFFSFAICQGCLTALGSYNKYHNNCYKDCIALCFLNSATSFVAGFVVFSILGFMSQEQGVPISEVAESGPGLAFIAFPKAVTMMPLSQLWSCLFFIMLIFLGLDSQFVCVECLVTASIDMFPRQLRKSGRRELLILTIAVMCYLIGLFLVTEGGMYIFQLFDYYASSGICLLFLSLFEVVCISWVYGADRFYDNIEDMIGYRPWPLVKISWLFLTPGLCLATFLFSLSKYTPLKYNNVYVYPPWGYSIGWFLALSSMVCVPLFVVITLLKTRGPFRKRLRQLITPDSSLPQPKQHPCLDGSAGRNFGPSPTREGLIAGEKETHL
Description: (§1) CHO Flp-In and tsA201 cells were cultured at 37 °C in a humidified atmosphere of […] and 5% CO2. As previously described[38],[63], CHO Flp-In cells stably expressing the hGATs were cultured in Ham’s F12 Nutrient Mix supplemented with 10% FBS, 1% P/S and plasmocin (5 µg/mL) under the selection pressure of hygromycin B (200 µg/mL). DMEM with GlutaMAX-I supplemented with 10% FBS and 1% P/S was used as growth medium for the tsA201 cells, which were transfected with DNA constructs using PolyFect according to the manufacturer’s specifications (Qiagen, West Sussex, UK), but with half of the recommended reagent volumes.
(§2) Uptake assays were performed in PDL-coated white 96-well polystyrene cell culture microplates (PerkinElmer, Boston, MA, USA) as previously described[38],[63]. […] Assay buffer was HBSS supplemented with 20 mM HEPES, 1 mM CaCl2 and 1 mM MgCl2, pH 7.4. […] After termination, scintillation liquid (MicroScint-20, PerkinElmer) was added and the radioactivity measured in a TopCount NXT Microplate Scintillation Counter (PerkinElmer).
(§3) Data analysis and statistical evaluation were performed in GraphPad Prism 7.02 (GraphPad Software, San Diego, CA, USA). Concentration-uptake inhibition curves, generated from the radioligand-based uptake assays, were fitted by non-linear regression, using the equation for sigmoidal concentration–response with variable slope: Y = Bottom + (Top–Bottom)/(1 + 10^((logIC50 − X) × HillSlope)), where Y is the response, X is the logarithm of the concentration, Top and Bottom are the plateaus in same units as Y, logIC50 is the concentration giving a response halfway between Bottom and Top, and the HillSlope is the steepness of the curve. For the substrate concentration–response curves generated from the FMP assay, the same equation was used but with logEC50 instead for logIC50. Unless otherwise stated, data are presented as means ± S.E.M. of at least three independent pooled experiments performed in triplicates.

hGAT3 [2] = target: T2, hGAT3 (Homo sapiens, UniProt P48066); assay: [3H]GABA uptake inhibition at hGAT3 stably expressed in CHO Flp-In cells; assay type: cell-based; conditions: 30 nM [3H]GABA, 3 min, CHO Flp-In cells stably expressing hGAT3; read-out: IC50 hGAT3
T2 construct: expressed in transfected cells
T2 sequence (P48066 1-632): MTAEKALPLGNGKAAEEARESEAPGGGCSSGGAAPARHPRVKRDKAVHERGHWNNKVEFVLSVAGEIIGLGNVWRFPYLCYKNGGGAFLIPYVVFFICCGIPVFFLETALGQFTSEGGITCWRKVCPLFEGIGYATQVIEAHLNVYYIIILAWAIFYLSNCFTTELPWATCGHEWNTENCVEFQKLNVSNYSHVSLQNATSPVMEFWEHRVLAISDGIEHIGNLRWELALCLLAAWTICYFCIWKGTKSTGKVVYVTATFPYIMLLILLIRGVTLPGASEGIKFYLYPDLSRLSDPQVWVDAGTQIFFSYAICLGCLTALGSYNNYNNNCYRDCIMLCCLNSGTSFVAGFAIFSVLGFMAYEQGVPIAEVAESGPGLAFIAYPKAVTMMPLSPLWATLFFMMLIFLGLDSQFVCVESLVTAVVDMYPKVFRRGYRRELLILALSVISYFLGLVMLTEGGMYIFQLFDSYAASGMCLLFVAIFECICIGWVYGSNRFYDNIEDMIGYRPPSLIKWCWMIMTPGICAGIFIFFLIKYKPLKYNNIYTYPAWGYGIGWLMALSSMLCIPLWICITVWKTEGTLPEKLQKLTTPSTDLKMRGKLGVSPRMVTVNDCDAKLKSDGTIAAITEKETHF
Description: as §1, §2, §3

hBGT1 [3] = target: T1, hBGT1; assay: FLIPR Membrane Potential (FMP) assay at hBGT1 stably expressed in CHO Flp-In cells; assay type: cell-based; conditions: for substrate character at hBGT1 in FMP assay: concentration-dependent increase in fluorescence signal; for Mean Rmax as % of GABA Rmax ± S.E.M. / EC50: hBGT1 stably expressed in CHO Flp-In cells; for Mean Rmax as % of GABA Rmax ± S.E.M.: FMP assay; for EC50: three independent experiments
Description: The fluorescence-based FMP assay was performed as previously described, for the functional characterization of the electrogenic transport of substrates via hBGT1. Briefly, CHO Flp-In cells stably expressing hBGT1 or hGAT1 were plated (~ 50,000 cells/well) into black PDL-coated 96-well plates with clear bottom (VWR, Radnor, PA, USA). The next day, the growth medium was removed, and cells were washed once with HBSS assay buffer and FMP Blue Dye (Molecular Devices, Crawley, UK), added, and incubated. Ligands were added via the NOVOStar plate reader (BMG Labtech GmbH, Offenburg, Germany), preheated to 37 °C, approximately 10 min before reading of the cell plate. The fluorescence signals were measured for 33.8 s upon ligand addition using an emission and excitation wavelength of […], respectively. Electrogenic transport of substrates via hBGT1 will lead to an influx of the negatively charged FMP Blue dye that will bind to intracellular proteins and lipids resulting in an increase in the fluorescence signal.
as §3

hGAT3 [4] = target: T2, hGAT3; conditions: [3H]GABA uptake, recombinant hGAT3; adapted from Al-Khawaja et al.; cited from earlier work
hBGT1 [5] = target: T1, hBGT1; conditions: previously demonstrated; cited from earlier work
hBGT1 [6] = target: T1, hBGT1; conditions: [3H]GABA uptake, recombinant hBGT1; adapted from Al-Khawaja et al.; cited from earlier work
[7] = read-out: pIC50 ± S.E.M. hBGT1 (converted)

For `C[C@@H]1N=C(N)NC[C@@H]1C(=O)O` (single isomer, unassigned) [l-15a], which IC50 (hBGT1 [1]; read-out: IC50 hBGT1) is on record?
Its IC50 is less than 100 µM.

And the IC50 (hBGT1 [1]; [7])?
The IC50 was 33.9 µM.

What about the “subtype-selectivity for hBGT1 over the other hGATs” value (hBGT1 [1]) of the same compound?
Its value is no less than 29 times.

And the IC50 (hGAT3 [2])?
Its IC50 is greater than 1000 µM.

What about the “substrate character at hBGT1 in FMP assay” value (“substrate character at hBGT1” below) (hBGT1 [3]) of the same compound?
Its value is “substrates for hBGT1”.

What about the “Mean Rmax as % of GABA Rmax ± S.E.M.” value (hBGT1 [3]) of the same compound?
Its value is 36 ± 2.9 % of GABA Rmax.

And the EC50 (hBGT1 [3])?
Its EC50 is 40 µM.

With `NC1=NCC(C(=O)O)CN1` (centres unmarked) [ATPCA, 2-amino-1,4,5,6-tetrahydropyrimidine-5-carboxylic acid, reference compound] as the compound, how does the IC50 (hGAT3 [4]) read?
Its IC50 is 99 µM.

What about the “pIC50 ± S.E.M. hGAT3” value (hGAT3 [4]) of the same compound?
The value was 4.00 ± 0.03.

And the “substrate character at hBGT1” value (hBGT1 [5])?
The value was “substrate for hBGT1”.

And the IC50 (hBGT1 [6])?
The IC50 was 2.5 µM.

And the “pIC50 ± S.E.M. hBGT1” value (hBGT1 [6])?
The value was 5.60 ± 0.11.

What does the source list for `NC1=NCC(C(=O)O)CC1` (centres unmarked) [compound 2, 6-amino-2,3,4,5-tetrahydropyridine-3-carboxylic acid, reference compound]?
IC50 (hBGT1 [1]; read-out: IC50 hBGT1): < 100 µM; IC50 (hBGT1 [1]; [7]): 12.9 µM; decrease of hBGT1 inhibitory potency compared to ATPCA (hBGT1 [1]): fivefold; IC50 (hBGT1 [6]): 9.8 µM; IC50 (hGAT3 [2]): > 1000 µM; substrate character at hBGT1 in FMP assay (hBGT1 [3]): substrates for hBGT1; Mean Rmax as % of GABA Rmax ± S.E.M. (hBGT1 [3]): 103 ± 3.9 % of GABA Rmax and 76 ± 2.7 % of GABA Rmax

Which results are given for `CCN1CC(C(=O)O)CN=C1N.Cl` (centres unmarked) [compound 3]?
IC50 (hBGT1 [1]; read-out: IC50 hBGT1): 86 µM; decrease of hBGT1 inhibitory potency compared to ATPCA (hBGT1 [1]): 20–65 fold and 34 fold; subtype-selectivity for hBGT1 over the other hGATs (hBGT1 [1]): at least 12 times; IC50 (hGAT3 [2]): > 1000 µM; substrate character at hBGT1 in FMP assay (hBGT1 [3]): substrates for hBGT1

Which IC50 (hBGT1 [1]; read-out: IC50 hBGT1) does the source give for `Cl.NC1=NCC(C(=O)O)CN1Cc1ccccc1` (centres unmarked) [compound 4] here?
Its IC50 is 163 µM.

And the “decrease of hBGT1 inhibitory potency compared to ATPCA” value (hBGT1 [1])?
Its value is 20–65 fold.

And the IC50 (hGAT3 [2])?
Its IC50 is 117 µM.

With `NC1=NC=C(C(=O)O)CN1.O=C(O)C(F)(F)F` [compound 11] as the compound, how does the IC50 (hBGT1 [1]; read-out: IC50 hBGT1) read?
The IC50 was 48 µM.

And the IC50 (hBGT1 [1]; [7])?
The IC50 was 46.8 µM.

What about the “decrease of hBGT1 inhibitory potency compared to ATPCA” value (hBGT1 [1]) of the same compound?
The value was 19 fold.

What about the “subtype-selectivity for hBGT1 over the other hGATs” value (hBGT1 [1]) of the same compound?
The value was no less than 21 times.

And the IC50 (hGAT3 [2])?
Its IC50 is greater than 1000 µM.

And the “substrate character at hBGT1” value (hBGT1 [3])?
Its value is “substrates for hBGT1”.

What about the “Mean Rmax as % of GABA Rmax ± S.E.M.” value (hBGT1 [3]) of the same compound?
The value was 95 ± 4.0 % of GABA Rmax.

What about the EC50 (hBGT1 [3]) of the same compound?
The EC50 was 75 µM.
